PubChem BioAssay AID248 (DTP/NCI, 2004)
Toxic doses and inconclusive results are not listed. No stated cut-off is given here; in the data, active means T/C of 150% or more; inactive means T/C below 125%.

Tested on: L1210 leukemia ip in BDF1 mice, survival T/C
Test: NCI In Vivo Anticancer Drug Screen. Data for tumor model L1210 Leukemia (intraperitoneal) in B6D2F1 (BDF1) mice
Conditions: endpoint: mean survival time, higher = longer survival
Summary of the method: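 Ratio derived from survival: compound-dosed mice over vehicle-dosed mice, all bearing a transplantable tumor.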

[1] = dose: 100.0 mg/kg/injection, schedule: Q01DX009 (ip), vehicle: Klucel (hydroxypropylcellulose) (HPC)
[2] = dose: 200.0 mg/kg/injection, schedule: Q01DX009 (ip), vehicle: Klucel (hydroxypropylcellulose) (HPC)
[3] = dose: 400.0 mg/kg/injection, schedule: Q01DX009 (ip), vehicle: Klucel (hydroxypropylcellulose) (HPC)
[4] = dose: 100.0 mg/kg/injection, schedule: Q04DX003 (ip), vehicle: Klucel (hydroxypropylcellulose) (HPC)
[5] = dose: 200.0 mg/kg/injection, schedule: Q04DX003 (ip), vehicle: Klucel (hydroxypropylcellulose) (HPC)
[6] = dose: 400.0 mg/kg/injection, schedule: Q04DX003 (ip), vehicle: Klucel (hydroxypropylcellulose) (HPC)
[7] = dose: 100.0 mg/kg/injection, schedule: Q01DX001 (ip), vehicle: saline
[8] = dose: 200.0 mg/kg/injection, schedule: Q01DX001 (ip), vehicle: saline
[9] = dose: 400.0 mg/kg/injection, schedule: Q01DX001 (ip), vehicle: saline

Measured: T/C

O=C(Nc1ccc(F)c([N+](=O)[O-])c1)Nc1cccc2c(O)cccc12
inactive: [1] 101 % of control | [2] 103 % of control | [3] 97 % of control

COC(=O)CNC(=O)C(CSCc1ccccc1)NC(=O)OCc1ccccc1 (stereo not drawn)
inactive: [4] 94 % of control | [5] 89 % of control | [6] 99 % of control

CCCCCCCCCCCCc1ccc2c(ccc3ccccc32)c1
inactive: [7] 95 % of control | [8] 98 % of control | [9] 98 % of control

O=C(O)c1cc([N+](=O)[O-])ccc1F
inactive: dose: 75.0 mg/kg/injection, schedule: Q01DX001 (ip), vehicle: acetone 95 % of control | dose: 150.0 mg/kg/injection, schedule: Q01DX001 (ip), vehicle: acetone 103 % of control

COc1cc([N+](=O)[O-])ccc1NC(=O)Oc1ccc(NC(C)=O)cc1
inactive: [1] 101 % of control | [2] 106 % of control | [3] 91 % of control

CCOC(=O)C1C(=O)CC(C)(O)C(C(=O)OCC)C1c1ccccc1 (stereo not drawn)
inactive: [7] 98 % of control | dose: 100.0 mg/kg/injection, schedule: Q04DX003 (ip), vehicle: saline 104 % of control | [8] 106 % of control | dose: 200.0 mg/kg/injection, schedule: Q04DX003 (ip), vehicle: saline 100 % of control | [9] 109 % of control | dose: 400.0 mg/kg/injection, schedule: Q04DX003 (ip), vehicle: saline 94 % of control

CCCCOc1ccc(CC(N)C(=O)O)cc1N(CCCl)CCCl (stereo not drawn)
inactive: dose: 6.6 mg/kg/injection, schedule: Q01DX001 (ip), vehicle: carboxymethylcellulose (CMC) 111 % of control | dose: 10.0 mg/kg/injection, schedule: Q01DX001 (ip), vehicle: carboxymethylcellulose (CMC) 116 % of control | dose: 10.0 mg/kg/injection, schedule: Q01DX001 (ip), vehicle: saline 122 % of control | dose: 30.0 mg/kg/injection, schedule: Q01DX001 (ip), vehicle: saline 107 % of control | dose: 60.0 mg/kg/injection, schedule: Q01DX001 (ip), vehicle: saline 102 % of control | dose: 90.0 mg/kg/injection, schedule: Q01DX001 (ip), vehicle: saline 101 % of control

CSc1nc(Cl)cc2c1ncn2C1OC(CO)C(O)C1O (stereo not drawn)
inactive: dose: 100.0 mg/kg/injection, schedule: Q01DX005 (ip), vehicle: saline 100 % of control | dose: 200.0 mg/kg/injection, schedule: Q01DX005 (ip), vehicle: saline 100 % of control

O=S(=O)(Nc1c(O)ccc2ccccc12)c1ccccc1
inactive: dose: 100.0 mg/kg/injection, schedule: Q01DX009 (ip), vehicle: saline with Tween-80 95 % of control | dose: 200.0 mg/kg/injection, schedule: Q01DX009 (ip), vehicle: saline with Tween-80 93 % of control | dose: 400.0 mg/kg/injection, schedule: Q01DX009 (ip), vehicle: saline with Tween-80 90 % of control

C#CCNc1c(C)cccc1C
inactive: [1] 107 % of control | [4] 98 % of control | [2] 102 % of control | [5] 97 % of control

O=[As](O)(c1cccc(Cl)c1)c1cccc(Cl)c1
inactive: dose: 75.0 mg/kg/injection, schedule: Q01DX001 (ip), vehicle: saline 105 % of control

C=C1C(=O)OC2CC(C)C3C4OC4C(O)C3(C)C(O)C12 (stereo not drawn)
inactive: dose: 9.38 mg/kg/injection, schedule: Q01DX009 (ip), vehicle: saline with Tween-80 104 % of control | dose: 18.75 mg/kg/injection, schedule: Q01DX009 (ip), vehicle: saline with Tween-80 106 % of control | dose: 37.5 mg/kg/injection, schedule: Q01DX009 (ip), vehicle: saline with Tween-80 102 % of control

CCC(C)NC(=O)/C=C/C(=O)NC(C)CC (stereo not drawn)
inactive: dose: 100.0 mg/kg/injection, schedule: Q04DX003 (ip), vehicle: saline with Tween-80 91 % of control | dose: 200.0 mg/kg/injection, schedule: Q04DX003 (ip), vehicle: saline with Tween-80 100 % of control | dose: 400.0 mg/kg/injection, schedule: Q04DX003 (ip), vehicle: saline with Tween-80 100 % of control

CCCCCCCCCCCCCCCC1=NN(c2ccccc2)C(=O)C1NC(=O)O (stereo not drawn)
inactive: [4] 107 % of control | [5] 97 % of control | [6] 98 % of control

O=[N+]([O-])c1ccc(C2OCCO2)cc1
inactive: dose: 100.0 mg/kg/injection, schedule: Q01DX001 (ip), vehicle: carboxymethylcellulose (CMC) 94 % of control | dose: 200.0 mg/kg/injection, schedule: Q01DX001 (ip), vehicle: carboxymethylcellulose (CMC) 91 % of control | dose: 400.0 mg/kg/injection, schedule: Q01DX001 (ip), vehicle: carboxymethylcellulose (CMC) 96 % of control
